# Test system: human bronchial epithelial cells, CFTR corrector, plate reader
# Experiment: CFTR ΔF508 corrector activity in bronchial cells, dose response, human bronchial epithelial cells, plate reader, cherry-pick, two tests (AID 743267)
# Conditions: measured here: test 1 replicate run
row,SMILES,AC50
1,COc1ccc(S(=O)(=O)Nc2ccc3c(c2)C(=O)N([C@H](C)CO)C[C@@H](C)[C@@H](CN(C)Cc2ccc(Cl)c(Cl)c2)O3)cc1,4.82 µM
2,COc1cccc(-c2ccc(C3[C@@H]4CN(S(=O)(=O)c5cccc(OC)c5)C[C@H]3N4)cc2)c1 (some centres undefined),13.5 µM
3,COC(=O)C[C@@H]1CC[C@@H]2[C@H](COc3ccc(NC(=O)c4ccc(C(F)(F)F)cc4)cc3C(=O)N2C)O1,19.2 µM
4,Cc1ccc(-c2ccc3c(c2)O[C@H](CN(C)Cc2ccccn2)[C@@H](C)CN([C@H](C)CO)S3(=O)=O)cc1,5.08 µM
5,C[C@@H]1CN([C@H](C)CO)S(=O)(=O)c2ccc(-c3ccc(C#N)cc3)cc2O[C@H]1CN(C)Cc1ccccn1,16 µM
6,C[C@@H]1CN([C@@H](C)CO)C(=O)Cc2cc(N(C)C)ccc2O[C@@H]1CN(C)Cc1ccccc1,3.78 µM
7,Cc1ccc(-c2ccc3c(c2)O[C@H](CN(C)Cc2ccccn2)[C@@H](C)CN([C@@H](C)CO)S3(=O)=O)cc1,18 µM
8,C[C@@H]1CN([C@H](C)CO)S(=O)(=O)c2ccc(C#CC3CC3)cc2O[C@H]1CN(C)Cc1ccccn1,11.8 µM
9,CN1c2ccc(-c3ccc(F)cc3)cc2[C@H]2[C@H](CCN2S(=O)(=O)c2cccc(F)c2)[C@H]1CO,4.41 µM

# Same assay, conditions: measured here: test 2 replicate run
row,SMILES,AC50
1,COc1ccc(NC(=O)C(=O)NCC2CCCN2S(=O)(=O)c2cccs2)cc1 (centres undefined),3.63 µM
2,CCOC(=O)N1CCN(S(=O)(=O)c2ccc3c(c2)C(C)C(=O)N3)CC1 (centres undefined),> 50 µM
3,COc1ccc(C(=O)NCC(c2ccco2)N2CCc3ccccc32)cc1 (centres undefined),2.69 µM
4,CCOc1ccc(-c2cc(C(=O)N/N=C/c3ccc(O)cc3)c3ccccc3n2)cc1,16 µM
5,C=C1SC(Nc2c(C)cc(C)cc2C)=NC12CCCCC2,5.37 µM
6,CC(=NNC(=O)c1ccncc1)c1ccc2ccccc2c1O,7.94 µM
7,COc1cc(OC)cc(C(=O)c2c(C)c(C#N)c3ccccn23)c1,1.8 µM
8,COc1ccc2[nH]c(C(=O)N/N=C/c3ccc(O)cc3O)cc2c1,4.83 µM
9,CC1=C/C(=C\C=C(C#N)C#N)N(C)c2ccccc21,12.9 µM
10,CCCC(=O)NC1=C(Cl)C(=O)c2ccccc2C1=O,11.8 µM
11,CC(=O)Nc1ccc(NC(=O)COc2cccc3c2OC(C)(C)C3)cc1,> 50 µM
12,Cc1cccc(NS(=O)(=O)c2ccc(-c3cnc(C4CC4)o3)cc2)c1,1.59 µM
13,O=C1c2cccc(NCCCNCCO)c2C(=O)c2cccc(NCCCNCCO)c21,16 µM
14,Cc1cc(C(=O)N/N=C/c2ccc(N(C)C)cc2)c2ccccc2n1,5.44 µM
15,CC(=NNC(=S)Nc1ccc(C)cc1)c1ccccn1,0.499 µM
16,CC(=O)O[C@H]1C(=O)[C@]2(C)[C@H]([C@H](OC(=O)c3ccccc3)[C@]3(O)C[C@H](OC(=O)[C@H](O)[C@@H](NC(=O)c4ccccc4)c4ccccc4)C(C)=C1C3(C)C)[C@]1(OC(C)=O)CO[C@@H]1C[C@@H]2O,0.339 µM
17,COc1ccc(OC)c(C(=O)Cn2nnc(-c3ccc(N4CCOCC4)cc3)n2)c1,31.1 µM
18,O=C(N/N=C/c1cccs1)c1cccc(NC(=O)c2ccccc2Cl)c1,0.985 µM
19,CCCC(=O)Nc1ccc2c(c1)nc(CN1CCN(C(=O)OCC)CC1)n2CC,8.58 µM
20,Cc1ccc(/C=N/NC(=O)C2COc3ccccc3O2)s1 (centres undefined),7.28 µM
21,Oc1cccc(/C=N/Nc2ccc(Cl)nn2)c1O,16 µM
22,O=C(N=Nc1c(O)[nH]c2ccc(Br)cc12)c1ccccc1-n1cccc1,2.33 µM
23,COc1cc(C(=O)OCCc2cc3ccccc3c(=O)o2)cc(OC)c1OC,1.59 µM
24,COc1ccc(C(=O)c2cc(OC)c(OC)c(OC)c2)cc1OC,2.72 µM

row,SMILES,AC50
1,O=C(N/N=C/c1cc(Br)cc(Cl)c1O)c1ccc2c(c1)OCO2,9.98 µM
2,CC(=O)Nc1ccc(Nc2c3ccccc3nc3ccccc23)cc1,4.6 µM
3,Cc1cc(C(=O)N/N=C/c2ccc3c(c2)OCO3)c2ccccc2n1,3.76 µM
4,CCOC(=O)c1c(C)[nH]c(C(=O)N/N=C/c2ccc(OC)c(OC)c2)c1C,2.93 µM
5,COc1cccc2c1C(=O)c1c(O)c3c(c(O)c1C2=O)C[C@@](O)(C(C)=O)C[C@@H]3O[C@H]1C[C@H](N)[C@H](O)[C@H](C)O1,7.44 µM
6,CCCOCCOC(=O)c1[nH]c2c(c1C)C(=O)CC(c1cc(OC)ccc1OC)C2 (centres undefined),3.69 µM
7,COc1ccc(NC(=O)c2nc(C)c(C3(C)CC(c4ccccc4)=NO3)s2)cc1 (centres undefined),3.49 µM
8,O=C1c2ccccc2C(=O)c2c1cccc2N(CCO)CCO,> 50 µM
9,Cn1cc(C(=O)OCC2CCN(CCNS(C)(=O)=O)CC2)c2ccccc21,> 50 µM
10,O=C1NC(=Nc2ccc(O)cc2)S/C1=C/c1ccco1,4.91 µM
11,CCOC(=O)c1sc(Nc2nc(C)cc(C)n2)nc1C,11.5 µM
12,Nc1[nH]nc2ncc3cc4ccccc4nc3c12,17.7 µM
13,COc1ccc(-c2ccc(OC)c(OC)c2OC)cc1,3.92 µM
14,CCCCn1c(CN2CCN(c3cccc(Cl)c3)CC2)nc2c1c(=O)[nH]c(=O)n2C,4.31 µM
15,COc1cccc(Sc2ccccc2/C=N/NC(N)=O)c1,41.6 µM
16,Cc1ccc2c(c1)CCCN2C(=O)CCc1nc2ccccc2c(=O)[nH]1,5.42 µM
17,COc1cc(/C=C/C(=O)c2ccc3c(c2)OCO3)cc(Cl)c1O,15.6 µM
18,O=C1OCC2=C1C(c1ccc3c(c1)OCO3)c1cc3c(cc1O2)OCO3 (centres undefined),2.12 µM
19,CC(=O)Nc1ccc(S(=O)(=O)Nc2cccc(-c3nc4cc(C)ccc4o3)c2)cc1,8.92 µM
20,O=C(NCCOc1ccccc1)c1cc([N+](=O)[O-])ccc1N1CCOCC1,2.66 µM
21,Cc1ccc(COc2ccccc2-c2cc(C(=O)N/N=C/c3cccnc3)[nH]n2)cc1,> 50 µM
22,CC1(C(=O)NCc2ccccc2)Cc2c(-c3ccc(C(N)=O)cc3)ccnc2O1 (centres undefined),5.22 µM
23,Cc1cc(C(=O)NNC(=O)c2ccc(Cl)c(S(N)(=O)=O)c2)c(C)o1,6.93 µM
24,COc1cc2c(cc1OC)C(C)N(C(=O)Nc1cc(C)cc(C)c1)CC2 (centres undefined),3.03 µM

row,SMILES,AC50
1,Cc1cc(C(=O)CCC(=O)NC(C)c2ccc(S(N)(=O)=O)cc2)c(C)s1 (centres undefined),> 50 µM
2,O=c1ccc2[n+]([O-])c3ccc(O)cc3oc-2c1,26.3 µM
3,COc1cc(C(=O)Nc2ccc(C)cc2)c2ccccc2n1,1.26 µM
4,COc1ccccc1/C=C/C=N/NC(=O)CCn1cnc2ccccc21,8.01 µM
5,COc1ccc(-c2ccc3oc(-c4ccc(OC)cc4)c(C#CCO)c3c2)cc1,> 50 µM
6,COc1cc(/C=N/NC(=O)c2cc(-c3c(C)nn(-c4ccccc4)c3C)n[nH]2)ccc1O,7.78 µM
7,CC1(S(=O)(=O)O)CC(=O)c2ccccc2C1=O (centres undefined),28.6 µM
8,CC(=O)Nc1cccc(-c2ccnc3c2CC(C)(C(=O)NCc2cccs2)O3)c1 (centres undefined),3.3 µM
9,CCc1c(C)nc2ncnn2c1NCCc1ccc(OC)cc1,34.6 µM
10,COC(=O)c1ccc(/C=C/c2c(-c3ccc(OC)cc3)oc3ccc(N4CCOCC4)cc23)cc1,16 µM
11,O=C1c2cccc3c(O)ccc(c23)C(=O)N1Cc1ccco1,13.3 µM
12,CCOC(=O)C1CCCN(c2ccc([N+](=O)[O-])c3nonc23)C1 (centres undefined),20.7 µM
13,CC(=O)Nc1ccc(-c2csc(NC(=O)CN3C(=O)NC4(CCCC4)C3=O)n2)cc1,> 50 µM
14,COc1ccc(-c2cc(C(F)F)n3ncc(C(=O)N4CCc5ccccc54)c3n2)cc1,16.1 µM
15,O=c1c(O)c(-c2cccs2)oc2ccc(Cl)cc12,6.12 µM
16,CCc1ccccc1N(C)S(=O)(=O)c1ccc(-c2cc(C)no2)s1,6.87 µM
17,COc1ccccc1N1CC(C(=O)Nc2ccc(S(=O)(=O)N3CCCC3)cc2)CC1=O (centres undefined),10.6 µM
18,CC(=O)O[C@H]1C(=O)[C@@]2(C)[C@H]([C@H](OC(=O)c3ccccc3)[C@]3(O)C[C@H](OC(=O)[C@H](O)C(NC(=O)c4ccccc4)c4ccccc4)C(C)=C1C3(C)C)[C@]1(OC(C)=O)CO[C@@H]1C[C@@H]2O (some centres undefined),3.59 µM
19,c1ccc(CCN(Cc2ccccc2)Cc2nc(C3CC3)no2)cc1,24.9 µM
20,Nc1ccc2c3c(cccc13)C(=O)N(c1ccccc1)C2=O,16 µM
21,NS(=O)(=O)c1ccc(S(=O)(=O)N(CCc2ccccc2)Cc2ccccn2)cc1,< 0.0235 µM
22,Cc1ccc(S(=O)(=O)N[C@H](C(=O)OCC(=O)NC(=O)C2CCCCC2)C(C)C)cc1,38.6 µM
23,O=C(CN(Cc1ccco1)Cc1ccco1)Nc1cc(S(=O)(=O)N2CCCCC2)ccc1Cl,17.2 µM
24,Cc1cc(Nc2ccc(Br)cc2)nc2ccccc12,21.1 µM

row,SMILES,AC50
1,COc1ccc(-c2nc(-c3cccc(C)c3)no2)cc1OC,9.13 µM
2,NCC(=O)NNC(=O)OCC1c2ccccc2-c2ccccc21,7.38 µM
3,Cc1ccc2[nH]c(C(=O)N/N=C/c3ccccc3O)c(C)c2c1,1.31 µM
4,COc1cc(C(=O)Nc2ccc3c(c2)ncn3C)cc(OC)c1OC,3.9 µM
5,CC(=O)OCCn1c2nc(=O)[nH]c(=O)c-2nc2cc(C)c(C)cc21,15.3 µM
6,COc1ccc(C)cc1NC(=O)CNC(c1ccccc1)c1ccc(C)cc1 (centres undefined),2.03 µM
7,Nc1ccc(-c2c3ccc(=O)cc-3oc3cc(O)ccc23)cc1C(=O)O,7.85 µM
8,CCOC(=O)/C(=C/C=C1\Sc2cc(C)c(C)cc2N1CC)C(C)=O,13.6 µM
9,N#CC1=C(N)Oc2c(ccc3cccnc23)C1c1ccccc1 (centres undefined),2.97 µM
10,CC(=O)O[C@H]1C(=O)[C@@]2(C)C([C@H](OC(=O)c3ccccc3)[C@]3(O)C[C@H](OC(=O)[C@H](O)[C@@H](NC(=O)c4ccccc4)c4ccccc4)C(C)=C1C3(C)C)[C@]1(OC(C)=O)CO[C@@H]1C[C@H]2O (some centres undefined),5.6 µM
11,Cn1cccc1/C=C1\SC(=Nc2ccccc2)NC1=O,2.89 µM
12,COc1ccc(CC(=O)NCc2ccc(-n3cccc3)cc2)cc1OC,3.53 µM
13,c1ccc2c(NCCCN3CCOCC3)c3ccccc3nc2c1,3.51 µM
14,COc1cccc(Nc2nc(-c3sc(NC(=O)c4ccccc4)nc3C)cs2)c1,11.6 µM
15,COc1ccc([C@H]2CC(=O)C=C(c3c(OC)cccc3OC)C2)cc1,6.28 µM
16,CCOc1ccc2[nH]c(C(=O)N/N=C/c3ccc(OC)cc3)cc2c1,36.4 µM
17,O=[N+]([O-])c1ccc(N2CCOCC2)c2c1no[n+]2[O-],2.76 µM
18,CCN(CC)c1ccc(/C=N/NC(=O)c2cnccn2)cc1,2.12 µM
19,Fc1ccccc1/C=N/NC(=S)Nc1ccc(Cl)cc1Cl,1.62 µM
20,Cc1ccc(OCC(=O)Nc2ccc3c(c2)ncn3C)cc1,> 50 µM
21,COc1cccc2c1C(=O)C=C(C)C2=O,15.2 µM
22,CN(Cc1ccco1)c1ncnc2ccc(-c3ccc4c(ccn4C)c3)cc12,1.77 µM
23,COc1nc(N)nc(NC(=O)c2cccs2)c1N=O,16 µM

# Reference: PubChem BioAssay AID743267 (Broad Institute, 2014)
